Assays:
[1] = test system: MB49-Luc tumor; assay: MB49-Luc tumor bearing mice; assay type: in vivo, C57BL/6 mice; conditions: 100 μg intra-tumoral Days 1, 3, 6, 9 plus 10 Gy radiation Day 0; by Day 20; vs vehicle alone, 10 Gy + vehicle, or Example 15B + vehicle
Text: The efficacy of the TREX1 inhibitors of the present invention can also be measured in a variety of in vivo assays. Exemplary mammals that can provide models to test the effectiveness of the TREX1 inhibitors of the present invention as anticancer agents include, but are not limited to, mice. Models of tumor growth and other tumor measurements can be used to assess the effectiveness of the anticancer agents described in the current invention. Example F describes an in vivo model of tumor growth in C57BL/6 mice. Compounds of the present invention can be tested in this model for their ability to inhibit growth of tumors. Compounds of the present invention can be used in combinatorial strategies to maximizing the immunogenicity of radiation therapy (Vanpouille-Box (2017) Nature Commun. 8, 81658). […] Ten week old female C57BL/6 mice were purchased from Jackson Laboratory (www.jax.org). During the study, the care and use of animals was conducted in accordance with the regulations of the Association for Assessment and Accreditation of Laboratory 15 Animal Care (AAALAC). […] Tumors were measured in two dimensions using calipers. Tumor volumes were calculated using the formula: volume (mm3)=(length×width2)/2. […]

[2] = target: human TREX1 (Homo sapiens (Human), UniProt Q9NSU2); assay: TREX1 Exonuclease Assay; assay type: biochemical
Sequence of human TREX1 (Q9NSU2 whole entry, the tested form may be a part): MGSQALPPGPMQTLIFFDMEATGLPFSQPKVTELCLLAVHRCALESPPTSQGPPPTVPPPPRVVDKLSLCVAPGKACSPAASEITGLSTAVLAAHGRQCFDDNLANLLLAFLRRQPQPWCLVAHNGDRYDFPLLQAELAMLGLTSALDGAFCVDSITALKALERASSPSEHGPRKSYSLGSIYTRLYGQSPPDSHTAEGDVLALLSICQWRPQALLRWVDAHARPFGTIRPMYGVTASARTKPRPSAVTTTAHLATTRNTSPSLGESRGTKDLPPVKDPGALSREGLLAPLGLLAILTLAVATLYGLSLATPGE
Protocol: For human TREX1, the nucleotide sequence of the gene construct was codon optimized for expression in the bacterial host. The sequence was incorporated into the pMAL-c5e vector (NEB) downstream of a solubility-promoting MBP (maltose binding protein) fusion partner. The fusion protein product was expressed in E. coli strain BL21 (DE3) (Millipore) and purified in a series of chromatographic steps. Initial steps were conducted using a dextrin sepharose affinity column followed by a Q-sepharose ion exchange column (both GE Healthcare). After the second column the MBP partner was removed by incubation with enterokinase (NEB). Further purification was carried out with the second application of a Q-sepharose column followed by a Superdex 75 (GE Healthcare) size exclusion column. Finally, a heparin sepharose column (GE Healthcare) was applied to remove contaminating nucleotides.
To evaluate the effect of compounds on TREX1 activity, test compounds were serially diluted (11-point, 3-fold) from 10 mM stock solutions and delivered to 384-well low-volume assay plates in 80 nL DMSO using an acoustic dispenser. Next, 4 μL of human TREX1 (0.5 nM), or murine TREX1 (1 nM), diluted in assay buffer (20 mM Tris pH 7.5, 5 mM MgCl2, 100 μg/mL BSA, 0.002% Triton X-100, 2 mM DTT), was added to the assay plate. After incubating for 30 minutes, 4 μL of labeled DNA oligonucleotide (500 nM) in assay buffer was added to initiate TREX1 exonuclease activity. The reaction was allowed to proceed for 45 minutes at room temperature prior to the addition of 4 μL of 150 mM EDTA to halt TREX1 activity.

[3] = test system: THP1 Dual cells, ISRE Lucia reporter gene, transfected with G3-YSD DNA; assay: Human Cellular EC50 Reporter Assay; assay type: cell-based; conditions: 72 h, serum-starved cells transfected with G3-YSD 10 ng/ml, three days
Text: Example E is a cell-based assay for TREX1 inhibitors using THP1 Dual™ cells (Invivogen), a human monocyte cell line that has stable integration of an Interferon Stimulated Response Element (ISRE) Lucia reporter gene. The Lucia gene encodes a secreted luciferase reporter protein, under the control of an ISG54 minimal promoter in conjunction with five IFN-stimulated response elements. Activation of the cGAS-STING pathway in THP1 Dual™ cells leads to enhanced luciferase secretion and increased luminescence.
A cell-based assay was established using THP1 Dual™ cells (InvivoGen), a human monocyte cell line that has stable integration of an Interferon Stimulated Response Element (ISRE) Lucia reporter gene. The Lucia gene encodes a secreted luciferase reporter protein, under the control of an ISG54 minimal promoter in conjunction with five IFN-stimulated response elements. Activation of the cGAS-STING pathway in these cells leads to enhanced luciferase secretion. Three days prior to the assay, cells were transferred to a T75 flask at a density of 3.0×10^5 cells/ml in 20 ml of serum-starved media (RPMI 1640 containing 1% Heat-Inactivated FBS, 1× Glutagro, 10 mM HEPES, 1 mM sodium pyruvate, 1×Pen/Strep, 100 μg/ml Normocin, 100 μg/ml Zeocin, 10 μg/ml Blasticidin). On the day of assay cells were collected by centrifugation, washed in 1×DPBS, and resuspended in the 1% serum media at 3.3×10^5 cells/ml. An aliquot of an aqueous solution of the DNA oligonucleotide G3-YSD (InvivoGen) at 1 mg/ml was diluted 100-fold into the transfection reagent LyoVec (InvivoGen) and incubated at ambient temperature for 50 min to allow complex formation. Test compounds in DMSO were transferred to a standard 96-well tissue culture plate via acoustic dispense of 0.54 μl per well. Serum-starved cells were batch transfected with complex at a final DNA concentration of 10 ng/ml for 60 min at ambient temperature before dispensing 180 ul (60,000 cells) per well into the assay plate. The assay plate was then incubated in a humidified chamber at 37° C. in 5% CO2 for three days. An aliquot of 10 μl was removed from each well to combine with 10 μl of the luciferase detection reagent, QUANTI-Luc™ Gold (InvivoGen) in a white 384-well plate. The luminescent signal was then read using an EnVision plate reader (Perkin Elmer). An EC50 for each compound was determined by plotting the signal as a function of log molar concentration and fitting to a four parameter logistic equation. (see Table 32).

SMILES	Tumor volume [1]	IC50 [2] [nM]	EC50 [3] [nM]
N[C@@H]1C[C@H]2C(=O)N([C@H](CCC(=O)O)C(=O)NCc3ccc(Cl)c(Cl)c3)CCC(CCc3ccccc3)N2C1 (some centres unmarked) [Example 15B]	reduced tumor volumes	–	–
CCOc1c(CNC(=O)[C@@H](CCC(=O)O)N2CCC(CCc3ccccc3)N3C[C@H](N)C[C@H]3C2=O)ccc(Cl)c1Cl (some centres unmarked) [Example 137]	–	< 1000	< 1000
CC(C)Oc1c(CNC(=O)[C@@H](CCC(=O)O)N2CCC(CCc3ccccc3)N3C[C@H](N)C[C@H]3C2=O)ccc(Cl)c1Cl (some centres unmarked) [Example 138]	–	< 1000	< 1000

— patent US11583538B2, “Substituted pyrrolo[1,2-a]pyrazines and pyrrolo[1,2-a][1,4]diazepines as TREX1 inhibitors” (Venenum Biodesign, LLC, priority 2019, dated 2023)
